Experimental data published in the NIST ThermoML archive (doi:10.1021/acs.jced.8b00132).
“And” between values parts separate entries of the source, which are not always exact repeats. Identical values can stand only once.

Conditions: Gas

O=C(C(F)(F)C(F)(F)F)C(F)(C(F)(F)F)C(F)(F)F [dodecafluoro-2-methylpentan-3-one]
Conditions	thermal conductivity
499.7 K, 3616 kPa, transient hot wire	0.03337 W/m/K
499.7 K, 4324 kPa, transient hot wire	0.03528 W/m/K
499.7 K, 5590 kPa, transient hot wire	0.03721 W/m/K
499.7 K, 35697 kPa, transient hot wire	0.05683 W/m/K
499.7 K, 50253 kPa, transient hot wire	0.06228 W/m/K
499.7 K, 50292 kPa, transient hot wire	0.06274 W/m/K
499.71 K, 3616 kPa, transient hot wire	0.03339 W/m/K
499.71 K, 25604 kPa, transient hot wire	0.05236 W/m/K
499.72 K, 3288 kPa, transient hot wire	0.03208 W/m/K
499.72 K, 4324 kPa, transient hot wire	0.03516 W/m/K
499.72 K, 18413 kPa, transient hot wire	0.04809 W/m/K
499.73 K, 643 kPa, hot wire	0.02734 W/m/K and 0.02744 W/m/K
499.73 K, 4855 kPa, transient hot wire	0.03606 W/m/K and 0.03623 W/m/K
499.73 K, 18416 kPa, transient hot wire	0.04833 W/m/K
499.73 K, 35665 kPa, transient hot wire	0.05687 W/m/K
499.74 K, 3288 kPa, transient hot wire	0.03222 W/m/K
499.74 K, 3937 kPa, transient hot wire	0.03429 W/m/K
499.74 K, 50254 kPa, transient hot wire	0.06235 W/m/K
499.75 K, 418 kPa, hot wire	0.02717 W/m/K
499.75 K, 2128 kPa, transient hot wire	0.02829 W/m/K
499.75 K, 35673 kPa, transient hot wire	0.05679 W/m/K
499.75 K, 35689 kPa, transient hot wire	0.05686 W/m/K
499.75 K, 50278 kPa, transient hot wire	0.06281 W/m/K
499.76 K, 417 kPa, hot wire	0.02687 W/m/K
499.76 K, 1595 kPa, transient hot wire	0.02727 W/m/K
499.76 K, 5594 kPa, transient hot wire	0.03739 W/m/K
499.76 K, 25601 kPa, transient hot wire	0.05218 W/m/K
499.76 K, 25602 kPa, transient hot wire	0.05226 W/m/K
499.76 K, 50255 kPa, transient hot wire	0.06232 W/m/K
499.77 K, 1595 kPa, transient hot wire	0.0273 W/m/K
499.77 K, 4324 kPa, transient hot wire	0.03524 W/m/K
499.78 K, 5592 kPa, transient hot wire	0.03734 W/m/K
499.79 K, 60 kPa, hot wire	0.02624 W/m/K
499.79 K, 218 kPa, hot wire	0.02627 W/m/K
499.79 K, 2953 kPa, transient hot wire	0.03092 W/m/K
499.79 K, 3618 kPa, transient hot wire	0.03355 W/m/K
499.79 K, 4324 kPa, transient hot wire	0.03534 W/m/K
499.79 K, 35664 kPa, transient hot wire	0.05692 W/m/K
499.79 K, 50251 kPa, transient hot wire	0.06211 W/m/K
499.8 K, 60 kPa, hot wire	0.02618 W/m/K
499.8 K, 217 kPa, hot wire	0.02613 W/m/K
499.8 K, 869 kPa, transient hot wire	0.02693 W/m/K and 0.02695 W/m/K
499.8 K, 2952 kPa, transient hot wire	0.03103 W/m/K
499.8 K, 3936 kPa, transient hot wire	0.03437 W/m/K
499.8 K, 4855 kPa, transient hot wire	0.03629 W/m/K
499.81 K, 2569 kPa, transient hot wire	0.0294 W/m/K
499.81 K, 3287 kPa, transient hot wire	0.0325 W/m/K and 0.03233 W/m/K
499.81 K, 3936 kPa, transient hot wire	0.03445 W/m/K
499.81 K, 35680 kPa, transient hot wire	0.05678 W/m/K
499.81 K, 35689 kPa, transient hot wire	0.05675 W/m/K
499.81 K, 50253 kPa, transient hot wire	0.06239 W/m/K
499.82 K, 2568 kPa, transient hot wire	0.02959 W/m/K
499.82 K, 35681 kPa, transient hot wire	0.05686 W/m/K
499.83 K, 646 kPa, transient hot wire	0.02724 W/m/K
499.83 K, 647 kPa, transient hot wire	0.02739 W/m/K
499.83 K, 13400 kPa, transient hot wire	0.04508 W/m/K
499.84 K, 5595 kPa, transient hot wire	0.03734 W/m/K
499.84 K, 13403 kPa, transient hot wire	0.04494 W/m/K
499.84 K, 18418 kPa, transient hot wire	0.04825 W/m/K
499.85 K, 3618 kPa, transient hot wire	0.0337 W/m/K
499.85 K, 4324 kPa, transient hot wire	0.03554 W/m/K
499.85 K, 25604 kPa, transient hot wire	0.05216 W/m/K
499.85 K, 35654 kPa, transient hot wire	0.05672 W/m/K
499.86 K, 4325 kPa, transient hot wire	0.03565 W/m/K
499.87 K, 5595 kPa, transient hot wire	0.03732 W/m/K
499.87 K, 35670 kPa, transient hot wire	0.05702 W/m/K
499.88 K, 1594 kPa, transient hot wire	0.02746 W/m/K
499.88 K, 1595 kPa, transient hot wire	0.02725 W/m/K
499.88 K, 2128 kPa, transient hot wire	0.02824 W/m/K
499.88 K, 2952 kPa, transient hot wire	0.03099 W/m/K
499.88 K, 3619 kPa, transient hot wire	0.03371 W/m/K
499.88 K, 3936 kPa, transient hot wire	0.03462 W/m/K
499.89 K, 422 kPa, transient hot wire	0.02757 W/m/K
499.89 K, 2128 kPa, transient hot wire	0.02826 W/m/K
499.89 K, 2952 kPa, transient hot wire	0.03116 W/m/K
499.89 K, 3936 kPa, transient hot wire	0.03474 W/m/K
499.89 K, 35669 kPa, transient hot wire	0.05673 W/m/K
499.9 K, 421 kPa, transient hot wire	0.02748 W/m/K
499.91 K, 2567 kPa, transient hot wire	0.02946 W/m/K
499.91 K, 3287 kPa, transient hot wire	0.03278 W/m/K
499.91 K, 10172 kPa, transient hot wire	0.0425 W/m/K
499.91 K, 25600 kPa, transient hot wire	0.05221 W/m/K
499.92 K, 6555 kPa, transient hot wire	0.03863 W/m/K
499.92 K, 10173 kPa, transient hot wire	0.0424 W/m/K
499.92 K, 25604 kPa, transient hot wire	0.05225 W/m/K
499.93 K, 870 kPa, transient hot wire	0.02694 W/m/K
499.93 K, 6552 kPa, transient hot wire	0.0387 W/m/K
499.93 K, 13400 kPa, transient hot wire	0.04487 W/m/K
499.93 K, 18421 kPa, transient hot wire	0.04818 W/m/K
499.94 K, 869 kPa, transient hot wire	0.0272 W/m/K
499.94 K, 18421 kPa, transient hot wire	0.0482 W/m/K
499.95 K, 5597 kPa, transient hot wire	0.03741 W/m/K
499.96 K, 2952 kPa, transient hot wire	0.03132 W/m/K
499.96 K, 3620 kPa, transient hot wire	0.0341 W/m/K
499.97 K, 25600 kPa, transient hot wire	0.05221 W/m/K
499.97 K, 25604 kPa, transient hot wire	0.05228 W/m/K
499.98 K, 645 kPa, transient hot wire	0.02717 W/m/K
499.99 K, 10173 kPa, transient hot wire	0.04254 W/m/K
499.99 K, 13400 kPa, transient hot wire	0.04504 W/m/K
499.99 K, 13402 kPa, transient hot wire	0.04506 W/m/K
499.99 K, 18421 kPa, transient hot wire	0.04841 W/m/K
500 K, 646 kPa, transient hot wire	0.02728 W/m/K
500 K, 2952 kPa, transient hot wire	0.03119 W/m/K
500 K, 3286 kPa, transient hot wire	0.03306 W/m/K and 0.03284 W/m/K
500 K, 6554 kPa, transient hot wire	0.03863 W/m/K
500 K, 6555 kPa, transient hot wire	0.03872 W/m/K
500 K, 8108 kPa, transient hot wire	0.04046 W/m/K
500 K, 10172 kPa, transient hot wire	0.04249 W/m/K
500.01 K, 1594 kPa, transient hot wire	0.02714 W/m/K
500.01 K, 2129 kPa, transient hot wire	0.02838 W/m/K
500.02 K, 1594 kPa, transient hot wire	0.02737 W/m/K
500.02 K, 2129 kPa, transient hot wire	0.0285 W/m/K
500.02 K, 2565 kPa, transient hot wire	0.02947 W/m/K
500.02 K, 2566 kPa, transient hot wire	0.0295 W/m/K
500.02 K, 8108 kPa, transient hot wire	0.04041 W/m/K
500.02 K, 18425 kPa, transient hot wire	0.0483 W/m/K
500.05 K, 419 kPa, transient hot wire	0.02753 W/m/K
500.06 K, 419 kPa, transient hot wire	0.02752 W/m/K
500.07 K, 10171 kPa, transient hot wire	0.04243 W/m/K
500.08 K, 870 kPa, transient hot wire	0.02705 W/m/K and 0.02701 W/m/K
500.08 K, 6554 kPa, transient hot wire	0.03889 W/m/K and 0.03865 W/m/K
500.08 K, 8107 kPa, transient hot wire	0.04045 W/m/K
500.08 K, 18421 kPa, transient hot wire	0.04829 W/m/K
500.09 K, 2952 kPa, transient hot wire	0.03151 W/m/K
500.1 K, 2952 kPa, transient hot wire	0.03143 W/m/K
500.1 K, 8107 kPa, transient hot wire	0.04058 W/m/K
500.1 K, 13402 kPa, transient hot wire	0.04498 W/m/K
500.12 K, 644 kPa, transient hot wire	0.02715 W/m/K
500.13 K, 645 kPa, transient hot wire	0.02741 W/m/K
500.13 K, 1594 kPa, transient hot wire	0.02735 W/m/K
500.14 K, 2565 kPa, transient hot wire	0.0296 W/m/K
500.15 K, 1594 kPa, transient hot wire	0.02739 W/m/K
500.15 K, 10171 kPa, transient hot wire	0.04243 W/m/K
500.16 K, 419 kPa, transient hot wire	0.02764 W/m/K
500.16 K, 10174 kPa, transient hot wire	0.04246 W/m/K
500.16 K, 13402 kPa, transient hot wire	0.04495 W/m/K
500.17 K, 6553 kPa, transient hot wire	0.03885 W/m/K
500.17 K, 8107 kPa, transient hot wire	0.04052 W/m/K
500.17 K, 8287 kPa, transient hot wire	0.04057 W/m/K
500.17 K, 13401 kPa, transient hot wire	0.04512 W/m/K
500.18 K, 6551 kPa, transient hot wire	0.03865 W/m/K
500.18 K, 8108 kPa, transient hot wire	0.04052 W/m/K
500.18 K, 8283 kPa, transient hot wire	0.0406 W/m/K
500.2 K, 419 kPa, transient hot wire	0.02743 W/m/K
500.23 K, 871 kPa, transient hot wire	0.02696 W/m/K
500.24 K, 872 kPa, transient hot wire	0.02702 W/m/K
500.24 K, 2563 kPa, transient hot wire	0.02975 W/m/K and 0.02983 W/m/K
500.25 K, 6550 kPa, transient hot wire	0.0387 W/m/K
500.25 K, 10172 kPa, transient hot wire	0.04247 W/m/K
500.26 K, 6550 kPa, transient hot wire	0.0388 W/m/K
500.27 K, 8107 kPa, transient hot wire	0.04068 W/m/K and 0.04066 W/m/K
500.27 K, 8290 kPa, transient hot wire	0.04063 W/m/K
500.27 K, 8294 kPa, transient hot wire	0.04069 W/m/K
500.28 K, 643 kPa, transient hot wire	0.02732 W/m/K and 0.02714 W/m/K
500.33 K, 419 kPa, transient hot wire	0.02775 W/m/K
500.34 K, 418 kPa, transient hot wire	0.02786 W/m/K
500.35 K, 8106 kPa, transient hot wire	0.0405 W/m/K
500.36 K, 8300 kPa, transient hot wire	0.04074 W/m/K
500.37 K, 8107 kPa, transient hot wire	0.04059 W/m/K
500.4 K, 872 kPa, transient hot wire	0.02701 W/m/K
500.4 K, 874 kPa, transient hot wire	0.02698 W/m/K
500.43 K, 643 kPa, transient hot wire	0.02726 W/m/K
500.45 K, 643 kPa, transient hot wire	0.0272 W/m/K
500.46 K, 8304 kPa, transient hot wire	0.04072 W/m/K
500.46 K, 8307 kPa, transient hot wire	0.04066 W/m/K
500.48 K, 417 kPa, transient hot wire	0.02764 W/m/K
500.49 K, 417 kPa, transient hot wire	0.02771 W/m/K
500.58 K, 8309 kPa, transient hot wire	0.04075 W/m/K
